Read-outs that look alike come from different tables or passages of the source. Marks after values point to notes of the source that are not given here.
Key:
advanced NSCLC = conditions: cited from earlier work
central memory T cells [1] = experiment: Cultured IFN-γ ELISPOT after 10-day in vitro stimulation of PBMC, phase 1/2 NSCLC trial of OSE-2101; assay type: in vivo, human; design: key to net SFC of vaccine positive CTL responses: —, indicates SFC response did not meet criteria and vaccine response was negative; conditions: for No. Positive Responses / Mean SFC: 6 NSCLC patients
In short: (§1)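 Patient PBMC (pre-treatment, Week 9, Week 18, after s.c. dosing every 3 weeks) were stimulated 10 days with 10 μg/ml of each epitope plus rIL-2 10 U/ml on days 1, 4 and 7. Cells were then tested 20 h with irradiated autologous PBMC and 10 μg/ml vaccine or wild-type peptide. Net SFC per 5×10^4 cells, irrelevant HBV peptide subtracted.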

central memory T cells [2] = experiment: Cultured IFN-γ ELISPOT after 10-day in vitro stimulation of PBMC, phase 1/2 colon cancer trial of OSE-2101; assay type: in vivo, human; design: key to net SFC of vaccine positive CTL responses: —, indicates SFC response did not meet criteria and vaccine response was negative; conditions: for Mean SFC: 10 colon patients
In short: as §1

central memory T cells [3] = experiment: Central memory T cell cultured ELISPOT, phase 2 trial in advanced NSCLC; assay type: in vivo, human
In short: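 Patient PBMC were pre-stimulated for 10 days with 10 μg/ml peptide plus rIL2 (10 U/ml, days 1, 4, 7), then replated at 5×10^4/well with irradiated autologous PBMC and 10 μg/ml peptide, and SFC were counted. A response was positive if >5 SFC above, and > mean+2 SD of, the irrelevant HBV epitope, and twofold the pre-vaccination response plus 2 SD.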

## Nc1nc2[nH]cc(CCc3ccc(C(=O)N[C@@H](CCC(=O)O)C(=O)O)cc3)c2c(=O)[nH]1 [pemetrexed]
Advanced NSCLC; phase 3, second line NSCLC (Bareschino 2011)
  median PFS: 2.9 months

## LLTFWNPPV [CEA.24V9 A]
Central memory T cells [1]; Week 9
  No. Positive Responses: 0
Central memory T cells [1]; Week 18
  Mean SFC: 34.3 SFC per 50,000 cells
  No. Positive Responses: 2
Central memory T cells [1]; NSCLC patient 201, Week 9
  net SFC of vaccine positive CTL responses: —
Central memory T cells [1]; NSCLC patient 201, Week 18
  net SFC of vaccine positive CTL responses: —
Central memory T cells [1]; NSCLC patient 502, Week 9
  net SFC of vaccine positive CTL responses: —
Central memory T cells [1]; NSCLC patient 502, Week 18
  net SFC of vaccine positive CTL responses: —
Central memory T cells [1]; NSCLC patient 504, Week 9
  net SFC of vaccine positive CTL responses: —
Central memory T cells [1]; NSCLC patient 504, Week 18
  net SFC of vaccine positive CTL responses: 25.3^d) SFC per 50,000 cells
Central memory T cells [1]; NSCLC patient 505, Week 9
  net SFC of vaccine positive CTL responses: —
Central memory T cells [1]; NSCLC patient 505, Week 18
  net SFC of vaccine positive CTL responses: —
Central memory T cells [1]; NSCLC patient 532, Week 9
  net SFC of vaccine positive CTL responses: —
Central memory T cells [1]; NSCLC patient 532, Week 18
  net SFC of vaccine positive CTL responses: 43.3 SFC per 50,000 cells
Central memory T cells [1]; NSCLC patient 651, Week 9
  net SFC of vaccine positive CTL responses: —
Central memory T cells [1]; NSCLC patient 651, Week 18
  net SFC of vaccine positive CTL responses: —
Central memory T cells [2]; Week 9
  Mean SFC: 86.5 SFC per 50,000 cells
Central memory T cells [2]; Week 18
  Mean SFC: 172.0 SFC per 50,000 cells
Central memory T cells [2]; colon patient 551, Week 9
  net SFC of vaccine positive CTL responses: 42.7^d) SFC per 50,000 cells
Central memory T cells [2]; colon patient 551, Week 18
  net SFC of vaccine positive CTL responses: —
Central memory T cells [2]; colon patient 601, Week 9
  net SFC of vaccine positive CTL responses: 118.0 SFC per 50,000 cells
Central memory T cells [2]; colon patient 601, Week 18
  net SFC of vaccine positive CTL responses: 96.0 SFC per 50,000 cells
Central memory T cells [2]; colon patient 602, Week 9
  net SFC of vaccine positive CTL responses: —
Central memory T cells [2]; colon patient 602, Week 18
  net SFC of vaccine positive CTL responses: —
Central memory T cells [2]; colon patient 603, Week 9
  net SFC of vaccine positive CTL responses: 63.0 SFC per 50,000 cells
Central memory T cells [2]; colon patient 603, Week 18
  net SFC of vaccine positive CTL responses: 20.7 SFC per 50,000 cells
Central memory T cells [2]; colon patient 604, Week 9
  net SFC of vaccine positive CTL responses: 55.3 SFC per 50,000 cells
Central memory T cells [2]; colon patient 604, Week 18
  net SFC of vaccine positive CTL responses: 187.0 SFC per 50,000 cells
Central memory T cells [2]; colon patient 605, Week 9
  net SFC of vaccine positive CTL responses: 43.7 SFC per 50,000 cells
Central memory T cells [2]; colon patient 605, Week 18
  net SFC of vaccine positive CTL responses: 109.7 SFC per 50,000 cells
Central memory T cells [2]; colon patient 606, Week 9
  net SFC of vaccine positive CTL responses: —
Central memory T cells [2]; colon patient 606, Week 18
  net SFC of vaccine positive CTL responses: —
Central memory T cells [2]; colon patient 607, Week 9
  net SFC of vaccine positive CTL responses: 196.7 SFC per 50,000 cells
Central memory T cells [2]; colon patient 607, Week 18
  net SFC of vaccine positive CTL responses: 586.7 SFC per 50,000 cells
Central memory T cells [2]; colon patient 608, Week 9
  net SFC of vaccine positive CTL responses: —
Central memory T cells [2]; colon patient 608, Week 18
  net SFC of vaccine positive CTL responses: —
Central memory T cells [2]; colon patient 609, Week 9
  net SFC of vaccine positive CTL responses: —
Central memory T cells [2]; colon patient 609, Week 18
  net SFC of vaccine positive CTL responses: 31.7 SFC per 50,000 cells
Central memory T cells [3]; phase 2, month 9
  % of patients with positive CTL/central memory T cell response: 57%
  patients with positive CTL/central memory T cell response / patients tested: 4/7
Central memory T cells [3]; phase 2, month 12
  % of patients with positive CTL/central memory T cell response: 50%
  patients with positive CTL/central memory T cell response / patients tested: 2/4
Central memory T cells [3]; phase 2, week 9
  % of patients with positive CTL/central memory T cell response: 39%
  patients with positive CTL/central memory T cell response / patients tested: 13/33
Central memory T cells [3]; phase 2, week 18
  % of patients with positive CTL/central memory T cell response: 31%
  patients with positive CTL/central memory T cell response / patients tested: 10/32
Central memory T cells [3]; phase 2, week 30
  % of patients with positive CTL/central memory T cell response: 28%
  patients with positive CTL/central memory T cell response / patients tested: 9/23

## C#Cc1cccc(Nc2ncnc3cc(OCCOC)c(OCCOC)cc23)c1 [Erlotinib]
Advanced NSCLC; advanced NSCLC after at least first line failure (Shepherd 2005)
  Progression-Free Survival (PFS): 2.2 months

## nivolumab
Advanced NSCLC; phase 3 study in squamous NSCLC (Brahmer 2015)
  median PFS: 3.5 months

## IMIGHLVGV [CEA.691H5 A]
Central memory T cells [1]; Week 9
  Mean SFC: 84.2 SFC per 50,000 cells
  No. Positive Responses: 2
Central memory T cells [1]; Week 18
  Mean SFC: 132.7 SFC per 50,000 cells
  No. Positive Responses: 3
Central memory T cells [1]; NSCLC patient 201, Week 9
  net SFC of vaccine positive CTL responses: —
Central memory T cells [1]; NSCLC patient 201, Week 18
  net SFC of vaccine positive CTL responses: —
Central memory T cells [1]; NSCLC patient 502, Week 9
  net SFC of vaccine positive CTL responses: —
Central memory T cells [1]; NSCLC patient 502, Week 18
  net SFC of vaccine positive CTL responses: —
Central memory T cells [1]; NSCLC patient 504, Week 9
  net SFC of vaccine positive CTL responses: 42.7 SFC per 50,000 cells
Central memory T cells [1]; NSCLC patient 504, Week 18
  net SFC of vaccine positive CTL responses: 284.0 SFC per 50,000 cells
Central memory T cells [1]; NSCLC patient 505, Week 9
  net SFC of vaccine positive CTL responses: —
Central memory T cells [1]; NSCLC patient 505, Week 18
  net SFC of vaccine positive CTL responses: 45.3 SFC per 50,000 cells
Central memory T cells [1]; NSCLC patient 532, Week 9
  net SFC of vaccine positive CTL responses: 125.7 SFC per 50,000 cells
Central memory T cells [1]; NSCLC patient 532, Week 18
  net SFC of vaccine positive CTL responses: —
Central memory T cells [1]; NSCLC patient 651, Week 9
  net SFC of vaccine positive CTL responses: —
Central memory T cells [1]; NSCLC patient 651, Week 18
  net SFC of vaccine positive CTL responses: 68.7 SFC per 50,000 cells
Central memory T cells [2]; Week 9
  Mean SFC: 178.0 SFC per 50,000 cells
Central memory T cells [2]; Week 18
  Mean SFC: 300.6 SFC per 50,000 cells
Central memory T cells [2]; colon patient 551, Week 9
  net SFC of vaccine positive CTL responses: 92.7 SFC per 50,000 cells
Central memory T cells [2]; colon patient 551, Week 18
  net SFC of vaccine positive CTL responses: 68.7 SFC per 50,000 cells
Central memory T cells [2]; colon patient 601, Week 9
  net SFC of vaccine positive CTL responses: 417.3 SFC per 50,000 cells
Central memory T cells [2]; colon patient 601, Week 18
  net SFC of vaccine positive CTL responses: 133.7 SFC per 50,000 cells
Central memory T cells [2]; colon patient 602, Week 9
  net SFC of vaccine positive CTL responses: —
Central memory T cells [2]; colon patient 602, Week 18
  net SFC of vaccine positive CTL responses: —
Central memory T cells [2]; colon patient 603, Week 9
  net SFC of vaccine positive CTL responses: 32.7 SFC per 50,000 cells
Central memory T cells [2]; colon patient 603, Week 18
  net SFC of vaccine positive CTL responses: 8.0 SFC per 50,000 cells
Central memory T cells [2]; colon patient 604, Week 9
  net SFC of vaccine positive CTL responses: 109.3 SFC per 50,000 cells
Central memory T cells [2]; colon patient 604, Week 18
  net SFC of vaccine positive CTL responses: 397.3 SFC per 50,000 cells
Central memory T cells [2]; colon patient 605, Week 9
  net SFC of vaccine positive CTL responses: 65.7 SFC per 50,000 cells
Central memory T cells [2]; colon patient 605, Week 18
  net SFC of vaccine positive CTL responses: —
Central memory T cells [2]; colon patient 606, Week 9
  net SFC of vaccine positive CTL responses: 24.3 SFC per 50,000 cells
Central memory T cells [2]; colon patient 606, Week 18
  net SFC of vaccine positive CTL responses: 45.0 SFC per 50,000 cells
Central memory T cells [2]; colon patient 607, Week 9
  net SFC of vaccine positive CTL responses: 593.3 SFC per 50,000 cells
Central memory T cells [2]; colon patient 607, Week 18
  net SFC of vaccine positive CTL responses: 1648.0 SFC per 50,000 cells
Central memory T cells [2]; colon patient 608, Week 9
  net SFC of vaccine positive CTL responses: —
Central memory T cells [2]; colon patient 608, Week 18
  net SFC of vaccine positive CTL responses: 18.0 SFC per 50,000 cells
Central memory T cells [2]; colon patient 609, Week 9
  net SFC of vaccine positive CTL responses: 89.0 SFC per 50,000 cells
Central memory T cells [2]; colon patient 609, Week 18
  net SFC of vaccine positive CTL responses: 86.0 SFC per 50,000 cells
Central memory T cells [3]; phase 2, month 9
  % of patients with positive CTL/central memory T cell response: 43%
  patients with positive CTL/central memory T cell response / patients tested: 3/7
Central memory T cells [3]; phase 2, month 12
  % of patients with positive CTL/central memory T cell response: 50%
  patients with positive CTL/central memory T cell response / patients tested: 2/4
Central memory T cells [3]; phase 2, week 9
  % of patients with positive CTL/central memory T cell response: 64%
  patients with positive CTL/central memory T cell response / patients tested: 7/11
Central memory T cells [3]; phase 2, week 18
  % of patients with positive CTL/central memory T cell response: 91%
  patients with positive CTL/central memory T cell response / patients tested: 10/11
Central memory T cells [3]; phase 2, week 30
  % of patients with positive CTL/central memory T cell response: 33%
  patients with positive CTL/central memory T cell response / patients tested: 2/6

Reference: patent US11191820B2, “Method for inducing early T memory response with short peptides anti-tumor vaccine” (OSE IMMUNOTHERAPEUTICS, priority 2015, dated 2021)
